Assay results published in PubChem BioAssay (NCI).
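A five-concentration, 48-hour dose response in 96-well plates underlies each endpoint, interpolated linearly between surrounding concentrations. GI50: concentration for 50% inhibition of growth. TGI denotes the concentration required for complete inhibition of growth.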

What was measured:
Assay in all cases: growth of human tumour cells (NCI), 48 h
A498 renal = tested on: A498 renal
HL-60(TB) leukemia = tested on: HL-60(TB) leukemia
HOP-62 NSCLC = tested on: HOP-62 NSCLC
NCI-H226 lung = tested on: NCI-H226 lung
NCI/ADR-RES ovarian = tested on: NCI/ADR-RES ovarian
OVCAR-5 ovarian = tested on: OVCAR-5 ovarian
RXF 393 renal = tested on: RXF 393 renal
SF-295 CNS = tested on: SF-295 CNS
SNB-75 CNS = tested on: SNB-75 CNS
TK-10 renal = tested on: TK-10 renal

Question: How did the TGI (A498 renal) turn out when `Cc1cc(S(=O)(=O)Nc2nnc3cnc4ccccc4n23)c(S)cc1Cl` was run?
Answer: > 100 µM

Question: And the TGI (HL-60(TB) leukemia)?
Answer: > 100 µM

Question: What about the TGI (HOP-62 NSCLC) of the same molecule?
Answer: > 100 µM

Question: What about the TGI (NCI-H226 lung) of the same molecule?
Answer: > 100 µM

Question: What about the TGI (NCI/ADR-RES ovarian) of the same molecule?
Answer: > 100 µM

Question: What about the TGI (OVCAR-5 ovarian) of the same molecule?
Answer: > 100 µM

Question: And the TGI (RXF 393 renal)?
Answer: > 100 µM

Question: And the TGI (SF-295 CNS)?
Answer: > 100 µM

Question: And the TGI (SNB-75 CNS)?
Answer: > 100 µM

Question: And the TGI (TK-10 renal)?
Answer: > 100 µM

Question: `NCC(O)CNC(=O)c1ccc(-c2ccc(-c3ccc(C(=O)NCC(O)CN)cc3)o2)cc1` (stereo not given) was tested. Which TGI (A498 renal) did it give?
Answer: 73.5 µM

Question: What about the TGI (HL-60(TB) leukemia) of the same molecule?
Answer: > 100 µM

Question: And the TGI (HOP-62 NSCLC)?
Answer: 74.4 µM

Question: What about the TGI (NCI-H226 lung) of the same molecule?
Answer: 55.4 µM

Question: And the TGI (NCI/ADR-RES ovarian)?
Answer: > 100 µM

Question: And the TGI (OVCAR-5 ovarian)?
Answer: > 100 µM

Question: And the TGI (RXF 393 renal)?
Answer: 40.1 µM

Question: What about the TGI (SF-295 CNS) of the same molecule?
Answer: 56.6 µM

Question: What about the TGI (SNB-75 CNS) of the same molecule?
Answer: 49.5 µM

Question: And the TGI (TK-10 renal)?
Answer: 38.9 µM

Question: What does the source list for `COC1=CC(=O)CC(C)C12Oc1c(Cl)c(OC)cc(OC)c1C2=O` (stereo not given)?
Answer: TGI (A498 renal): > 93.8 µM; TGI (HL-60(TB) leukemia): > 44.1 µM; TGI (HOP-62 NSCLC): > 100 µM; TGI (NCI-H226 lung): > 100 µM; TGI (NCI/ADR-RES ovarian): > 76.4 µM; TGI (OVCAR-5 ovarian): > 100 µM; TGI (RXF 393 renal): 43.3 µM; TGI (SF-295 CNS): 57.3 µM; TGI (SNB-75 CNS): 28.5 µM; TGI (TK-10 renal): > 100 µM

Question: `COc1ccc(N=NC(=O)NC(CC(C)C)C(N)=O)cc1` (stereo not given) was tested. Which TGI (A498 renal) did it give?
Answer: > 31.6 µM

Question: And the TGI (HL-60(TB) leukemia)?
Answer: > 100 µM

Question: What about the TGI (HOP-62 NSCLC) of the same molecule?
Answer: > 100 µM

Question: And the TGI (NCI-H226 lung)?
Answer: > 100 µM

Question: And the TGI (NCI/ADR-RES ovarian)?
Answer: > 100 µM

Question: And the TGI (OVCAR-5 ovarian)?
Answer: > 100 µM

Question: And the TGI (RXF 393 renal)?
Answer: > 31.6 µM

Question: And the TGI (SF-295 CNS)?
Answer: > 100 µM

Question: And the TGI (SNB-75 CNS)?
Answer: > 100 µM

Question: And the TGI (TK-10 renal)?
Answer: > 31.6 µM

Question: `CCOC(=O)Nc1ccc2c(c1)c(CCCCCCc1nc3ccccc3c3ccc(NC(=O)OCC)cc13)nc1ccccc12` was tested. Which TGI (A498 renal) did it give?
Answer: 67.3 µM

Question: What about the TGI (HL-60(TB) leukemia) of the same molecule?
Answer: > 100 µM

Question: And the TGI (HOP-62 NSCLC)?
Answer: 64.2 µM

Question: And the TGI (NCI-H226 lung)?
Answer: 81 µM

Question: What about the TGI (NCI/ADR-RES ovarian) of the same molecule?
Answer: > 100 µM

Question: What about the TGI (OVCAR-5 ovarian) of the same molecule?
Answer: > 100 µM

Question: What about the TGI (RXF 393 renal) of the same molecule?
Answer: > 100 µM

Question: What about the TGI (SF-295 CNS) of the same molecule?
Answer: > 100 µM

Question: And the TGI (SNB-75 CNS)?
Answer: 45.3 µM

Question: What about the TGI (TK-10 renal) of the same molecule?
Answer: 84.8 µM

Question: With `COc1cc(OC)cc(-c2n/c(=C\c3c(O)[nH]c4ccc(OC)cc34)cc3c2=Nc2ccccc2-3)c1` as the molecule, how does the GI50 (A498 renal) read?
Answer: 14.8 µM

Question: What about the TGI (A498 renal) of the same molecule?
Answer: 34 µM

Question: What about the GI50 (HL-60(TB) leukemia) of the same molecule?
Answer: 16.6 µM

Question: What about the TGI (HL-60(TB) leukemia) of the same molecule?
Answer: 36.2 µM

Question: And the GI50 (HOP-62 NSCLC)?
Answer: 15.6 µM

Question: What about the TGI (HOP-62 NSCLC) of the same molecule?
Answer: 34.1 µM

Question: And the GI50 (NCI-H226 lung)?
Answer: 26.6 µM

Question: And the TGI (NCI-H226 lung)?
Answer: 56.9 µM

Question: And the GI50 (NCI/ADR-RES ovarian)?
Answer: 3.66 µM

Question: And the TGI (NCI/ADR-RES ovarian)?
Answer: 18.7 µM

Question: What about the GI50 (OVCAR-5 ovarian) of the same molecule?
Answer: 70.2 µM

Question: What about the TGI (OVCAR-5 ovarian) of the same molecule?
Answer: > 100 µM

Question: What about the GI50 (RXF 393 renal) of the same molecule?
Answer: 5.65 µM

Question: What about the TGI (RXF 393 renal) of the same molecule?
Answer: 27.2 µM

Question: And the GI50 (SF-295 CNS)?
Answer: 14.4 µM

Question: What about the TGI (SF-295 CNS) of the same molecule?
Answer: 34 µM

Question: And the GI50 (SNB-75 CNS)?
Answer: 18.5 µM

Question: What about the TGI (SNB-75 CNS) of the same molecule?
Answer: 34.3 µM

Question: And the GI50 (TK-10 renal)?
Answer: 3.82 µM

Question: What about the TGI (TK-10 renal) of the same molecule?
Answer: 9.86 µM

Question: With `COC(=O)c1ccc(C)cc1CC1Cc2ccc(C)cc2C1=O` (stereo not given) as the molecule, how does the TGI (A498 renal) read?
Answer: 9.19 µM

Question: What about the TGI (HL-60(TB) leukemia) of the same molecule?
Answer: 10.7 µM

Question: What about the TGI (HOP-62 NSCLC) of the same molecule?
Answer: > 100 µM

Question: What about the TGI (NCI-H226 lung) of the same molecule?
Answer: 27.2 µM

Question: What about the TGI (NCI/ADR-RES ovarian) of the same molecule?
Answer: 18.3 µM

Question: And the TGI (OVCAR-5 ovarian)?
Answer: 92.4 µM

Question: What about the TGI (RXF 393 renal) of the same molecule?
Answer: 28.8 µM

Question: And the TGI (SF-295 CNS)?
Answer: 96.7 µM

Question: And the TGI (SNB-75 CNS)?
Answer: 43.8 µM

Question: And the TGI (TK-10 renal)?
Answer: 46.8 µM

Question: What does the source list for `Cn1ncc2c(Cl)ncnc21`?
Answer: TGI (A498 renal): > 100 µM; TGI (HL-60(TB) leukemia): > 100 µM; TGI (HOP-62 NSCLC): > 100 µM; TGI (NCI-H226 lung): > 100 µM; TGI (NCI/ADR-RES ovarian): > 100 µM; TGI (OVCAR-5 ovarian): > 100 µM; TGI (RXF 393 renal): > 100 µM; TGI (SF-295 CNS): > 100 µM; TGI (SNB-75 CNS): > 100 µM; TGI (TK-10 renal): > 100 µM

Question: How did the TGI (A498 renal) turn out when `CN(C)c1ccc(/C=C(\NC(=O)c2ccccc2)C2=NC(CCC(=O)O)C(=O)O2)cc1` (stereo not given) was run?
Answer: > 50 µM

Question: And the TGI (HL-60(TB) leukemia)?
Answer: > 50 µM

Question: And the TGI (HOP-62 NSCLC)?
Answer: > 50 µM

Question: And the TGI (NCI-H226 lung)?
Answer: > 50 µM

Question: What about the TGI (NCI/ADR-RES ovarian) of the same molecule?
Answer: > 50 µM

Question: And the TGI (OVCAR-5 ovarian)?
Answer: > 50 µM

Question: What about the TGI (RXF 393 renal) of the same molecule?
Answer: > 50 µM

Question: What about the TGI (SF-295 CNS) of the same molecule?
Answer: > 50 µM

Question: What about the TGI (SNB-75 CNS) of the same molecule?
Answer: > 50 µM

Question: And the TGI (TK-10 renal)?
Answer: > 50 µM

Question: What does the source list for `CC(=O)Oc1c(-c2ccccc2)sc2ccccc12`?
Answer: TGI (A498 renal): 34.5 µM; TGI (HL-60(TB) leukemia): 39.6 µM; TGI (HOP-62 NSCLC): 45.7 µM; TGI (NCI-H226 lung): 28.8 µM; TGI (NCI/ADR-RES ovarian): 59.1 µM; TGI (OVCAR-5 ovarian): 61.5 µM; TGI (RXF 393 renal): 28.1 µM; TGI (SF-295 CNS): 40.3 µM; TGI (SNB-75 CNS): 34.8 µM; TGI (TK-10 renal): 65.1 µM

Question: `NC1=Nc2cc(Cl)ccc2Sc2nc3ccccc3n21` was tested. Which TGI (A498 renal) did it give?
Answer: > 100 µM

Question: And the TGI (HL-60(TB) leukemia)?
Answer: 7.49 µM

Question: And the TGI (HOP-62 NSCLC)?
Answer: > 100 µM

Question: What about the TGI (NCI-H226 lung) of the same molecule?
Answer: > 100 µM

Question: What about the TGI (NCI/ADR-RES ovarian) of the same molecule?
Answer: > 100 µM

Question: What about the TGI (OVCAR-5 ovarian) of the same molecule?
Answer: > 100 µM

Question: What about the TGI (RXF 393 renal) of the same molecule?
Answer: > 100 µM

Question: And the TGI (SF-295 CNS)?
Answer: > 100 µM

Question: What about the TGI (SNB-75 CNS) of the same molecule?
Answer: > 86.4 µM

Question: What about the TGI (TK-10 renal) of the same molecule?
Answer: > 100 µM

Question: Which results are given for `O=C(CCC=C(S(=O)(=O)c1ccccc1)S(=O)(=O)c1ccccc1)c1ccccc1`?
Answer: TGI (A498 renal): 31.7 µM; TGI (HL-60(TB) leukemia): 5.2 µM; TGI (HOP-62 NSCLC): 40.3 µM; TGI (NCI-H226 lung): 37.3 µM; TGI (NCI/ADR-RES ovarian): 25.8 µM; TGI (OVCAR-5 ovarian): 24 µM; TGI (RXF 393 renal): 20 µM; TGI (SF-295 CNS): 60.9 µM; TGI (SNB-75 CNS): 9.57 µM; TGI (TK-10 renal): 19.3 µM

Question: What does the source list for `CC(C)(C)c1cc(OCc2nn3c(Cc4ccccc4)nnc3s2)c(Cl)cc1OCc1nn2c(Cc3ccccc3)nnc2s1`?
Answer: TGI (A498 renal): > 100 µM; TGI (HL-60(TB) leukemia): 97.9 µM; TGI (HOP-62 NSCLC): > 100 µM; TGI (NCI-H226 lung): > 100 µM; TGI (NCI/ADR-RES ovarian): > 100 µM; TGI (OVCAR-5 ovarian): > 100 µM; TGI (RXF 393 renal): > 100 µM; TGI (SF-295 CNS): > 100 µM; TGI (SNB-75 CNS): > 100 µM; TGI (TK-10 renal): > 100 µM
